Assay results: patent US9546141B2, “Salts” (Sprout Pharmaceuticals, Inc., priority 2008, dated 2017)

Columns and labels:
[1] = Solubility of the crystalline salt forms in water; format: physicochemical; conditions: shaken 2 hours, filtered, UV-spectroscopy
Method: Solubility of the different crystalline salt forms in water was determined by adding […] of compound into 5 ml of water at room temperature. The mixture was vigorously shaken for 2 hours at room temperature. Afterwards the undissolved solid was removed by filtering through a 0.45 μm PTFE filter, in the filtrate the dissolved amount of compound was determined by UV-spectroscopy.

[2] = Hygroscopicity (IGAsorp water sorption monitor); format: physicochemical; conditions: room temperature
Method: IGAsorp water sorption monitor from Hiden Isochema was used for the analysis of the hygroscopical behaviour at room temperature. • humidity profile: from 10-90% r.h. in steps of 10%, sorption as well as desorption profiles were registered • weight-in quantity: 10-20 mg

Row | SMILES | solubility in water at room temperature [1] | hygroscopicity expressed in the uptake of water in the range of 10-90% relative humidity [2]
1 | O=C(O)C(=O)O.O=c1[nH]c2ccccc2n1CCN1CCN(c2cccc(C(F)(F)F)c2)CC1 [IX, 1-[2-(4-(3-trifluoro-methyl-phenyl)piperazin-1-yl)ethyl]-2,3-dihydro-1H-benzimidazol-2-one oxalate] | 1.7 mg/mL | 0.7%
2 | CS(=O)(=O)O.O=c1[nH]c2ccccc2n1CCN1CCN(c2cccc(C(F)(F)F)c2)CC1 [VII, 1-[2-(4-(3-trifluoro-methyl-phenyl)piperazin-1-yl)ethyl]-2,3-dihydro-1H-benzimidazol-2-one mesylate] | 1.1 mg/mL | 3.4%
3 | O=S(=O)(O)c1ccccc1.O=c1[nH]c2ccccc2n1CCN1CCN(c2cccc(C(F)(F)F)c2)CC1 [VIII, 1-[2-(4-(3-trifluoro-methyl-phenyl)piperazin-1-yl)ethyl]-2,3-dihydro-1H-benzimidazol-2-one besylate] | 0.1 mg/mL | 0.15%
4 | O=C1NS(=O)(=O)c2ccccc21.O=c1[nH]c2ccccc2n1CCN1CCN(c2cccc(C(F)(F)F)c2)CC1 [XI, 1-[2-(4-(3-trifluoro-methyl-phenyl)piperazin-1-yl)ethyl]-2,3-dihydro-1H-benzimidazol-2-one sacharinate] | 0.3 mg/mL | 0.24%
5 | CCS(=O)(=O)O.O=c1[nH]c2ccccc2n1CCN1CCN(c2cccc(C(F)(F)F)c2)CC1 [XV, 1-[2-(4-(3-trifluoro-methyl-phenyl)piperazin-1-yl)ethyl]-2,3-dihydro-1H-benzimidazol-2-one ethansulfonate] | 1.3 mg/mL | 0.32%
6 | Cc1ccc(S(=O)(=O)O)cc1.O=c1[nH]c2ccccc2n1CCN1CCN(c2cccc(C(F)(F)F)c2)CC1 [XXX, 1-[2-(4-(3-trifluoro-methyl-phenyl)piperazin-1-yl)ethyl]-2,3-dihydro-1H-benzimidazol-2-one tosylate] | 0.09 mg/mL | 0.25%
7 | O=C(O)/C=C/C(=O)O.O=c1[nH]c2ccccc2n1CCN1CCN(c2cccc(C(F)(F)F)c2)CC1 [XXXI, 1-[2-(4-(3-trifluoro-methyl-phenyl)piperazin-1-yl)ethyl]-2,3-dihydro-1H-benzimidazol-2-one fumarate] | 0.5 mg/mL | 0.28%
8 | CC1(C)C2CCC1(CS(=O)(=O)O)C(=O)C2.O=c1[nH]c2ccccc2n1CCN1CCN(c2cccc(C(F)(F)F)c2)CC1 [XXXII, 1-[2-(4-(3-trifluoro-methyl-phenyl)piperazin-1-yl)ethyl]-2,3-dihydro-1H-benzimidazol-2-one camphorsulfonate] | 0.7 mg/mL | 0.13%
9 | O=C(O)CO.O=c1[nH]c2ccccc2n1CCN1CCN(c2cccc(C(F)(F)F)c2)CC1 [XXXIII, 1-[2-(4-(3-trifluoro-methyl-phenyl)piperazin-1-yl)ethyl]-2,3-dihydro-1H-benzimidazol-2-one glycolate] | 0.5 mg/mL | 0.20%
